# Data reported in US12377112B2, “Methods of treating neurocognitive disorders, chronic pain and reducing inflammation” (priority 2019, dated 2025).
# Assays:
# male CD1 mice = test: Pentylenetetrazol (PTZ) infusion seizure threshold; assay type: in vivo, mouse; conditions: 10 mg/kg
# Text: Administration of chemical convulsant agents such as Pentylenetetrazol (PTZ) are used to mimic behavioral aspects of human epilepsy. PTZ causes myoclonic jerking movements, clonic convulsions or forelimb/hindlimb tonic extension in rodents. The PTZ model is primarily used to evaluate anti-convulsant properties of antiepileptic drugs (AED's) by identifying compounds which raise seizure threshold but can also be used to identify pro-convulsant agents that lower seizure threshold. PTZ is a well-established model for acute and repetitive seizures, and is accepted for use for screening AED action. PTZ induces myoclonic and generalized tonic-clonic seizures.
# Male CD1 mice (age 6-8 weeks, weight 30.0-42.9 g, source: Charles River UK) were used in this study. […] During this time-infusion, mice were individually assessed for the onset of myoclonic, forelimb tonus and hindlimb tonus seizures. The latencies (in seconds) from start of infusion to the appearance of first myoclonus, forelimb tonic and hind limb tonic extension were recorded. […] For animals reaching this cut off, the dose of PTZ in mg/kg infused over the 120 s was calculated as the threshold dose. […]
# Data was analysed using one way ANOVA in which the dose of PTZ required to induce seizure was compared between each treatment groups and vehicle. […]
# [1] = tested on: children aged 7 to 14 years old with ADHD; conditions: 6-week trial, children aged 7 to 14 years with ADHD; cited from earlier work
# patients = conditions: human, in vivo; cited from earlier work
smiles,measurement,setting,value
"CN1C(=O)CN=C(c2ccccc2)c2cc(Cl)ccc21 [Diazepam, diazepam]","Dose of PTZ required to induce myoclonic, forelimb and hindlimb tonic seizures",male CD1 mice,significantly increased
NC(=O)C[S+]([O-])C(c1ccccc1)c1ccccc1 (stereo not drawn) [modafinil],Response rate compared to placebo,[1],78%
"CNCC[C@@H](Oc1ccccc1C)c1ccccc1 [Atomoxetine, atomoxetine]","Decreased appetite, % of patients",patients,15-20%
